How the values were obtained:
human TGR5 receptor = target: T1, human TGR5 receptor (Homo sapiens, UniProt Q8TDU6); assay: Human TGR5 cAMP production assay; format: cell-based; conditions: human TGR5, luminescent cAMP assay; coded A-D; read-out: Human TGR5 Lum. cAMP Activity (EC50)
T1 construct: host or cells: CHO-K1 (hTGR5-CHO cells)
T1 sequence (Q8TDU6 1-330): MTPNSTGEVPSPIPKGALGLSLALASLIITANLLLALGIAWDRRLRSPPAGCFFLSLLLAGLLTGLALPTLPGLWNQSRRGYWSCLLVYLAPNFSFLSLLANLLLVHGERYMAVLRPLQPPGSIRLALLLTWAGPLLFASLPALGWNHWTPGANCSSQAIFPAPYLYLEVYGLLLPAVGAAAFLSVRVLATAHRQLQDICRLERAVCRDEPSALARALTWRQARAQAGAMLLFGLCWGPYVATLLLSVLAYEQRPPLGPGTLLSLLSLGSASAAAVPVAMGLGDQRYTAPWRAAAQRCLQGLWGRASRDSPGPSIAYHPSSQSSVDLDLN
Outline: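 Intracellular cAMP read by luminescent enzyme-complementation (XS+) after overnight development, following 1 h room-temperature compound treatment of hTGR5-CHO-K1 cells in IBMX plus anti-cAMP antibody. Compounds tested as half-log dilution series; EC50 derived.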

mouse TGR5 receptor = target: T2, mouse TGR5 receptor (Mus musculus, UniProt Q80SS6); assay: Mouse TGR5 cAMP production assay (HTRF, Cisbio cAMP HiRange); format: cell-based; conditions: HEK293-EBNA cells overexpressing mouse TGR5, HTRF cAMP HiRange; coded A-D
T2 construct: expressed in transfected cells; host or cells: HEK293-EBNA (293 c18, ATCC CRL10852), Hygromycin B selection
T2 sequence (Q80SS6 1-329): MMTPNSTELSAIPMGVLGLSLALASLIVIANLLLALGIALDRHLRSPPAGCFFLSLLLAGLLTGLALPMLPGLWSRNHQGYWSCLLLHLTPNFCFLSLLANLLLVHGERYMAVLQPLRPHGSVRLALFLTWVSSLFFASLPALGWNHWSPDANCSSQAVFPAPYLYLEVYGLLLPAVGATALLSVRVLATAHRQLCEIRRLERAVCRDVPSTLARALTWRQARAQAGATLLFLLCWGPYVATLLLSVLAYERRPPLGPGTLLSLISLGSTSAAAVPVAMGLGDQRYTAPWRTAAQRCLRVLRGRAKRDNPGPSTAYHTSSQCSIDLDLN
Outline: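 cAMP read by HTRF competition after 1 h room-temperature compound exposure of mouse TGR5-overexpressing HEK293-EBNA cells. Cells were suspended in serum-free DMEM containing 500 μM IBMX; compounds ran as 12-point half-log dilutions in duplicate; EC50 derived.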

CCc1cnccc1-c1cccc([C@H](C)N(CCCC(=O)O)S(=O)(=O)c2cccc(Cl)c2C)c1 [Compound 16AB, (S)-4-(3-chloro-N-(1-(3-(3-ethylpyridin-4-yl)phenyl)ethyl)-2-methylphenyl-sulfonamido)butanoic acid]
EC50 (human TGR5 receptor): < 100 nM
EC50 (mouse TGR5 receptor): < 100 nM

Cc1cnccc1-c1cccc([C@H](C)N(CCCC(=O)N(CC(=O)O)CC(=O)O)S(=O)(=O)c2cccc(Cl)c2C)c1 [Compound 21AK, (S)-2,2′-((4-(3-chloro-2-methyl-N-(1-(3-(3-methylpyridin-4-yl)phenyl)ethyl)phenylsulfonamido)butanoyl)azanediyl)diacetic acid]
EC50 (human TGR5 receptor): 1000 to 30000 nM
EC50 (mouse TGR5 receptor): 1000 to 30000 nM

COc1cnccc1-c1cccc(C(C)(C)NS(=O)(=O)c2cc(Cl)ccc2Cl)c1 [Compound 2BE]
EC50 (human TGR5 receptor): < 100 nM
EC50 (mouse TGR5 receptor): 100 to 999 nM

Cc1cnccc1-c1cccc(C2CN(C(=O)CS(=O)(=O)O)CCN2S(=O)(=O)c2ccccc2C)c1 (stereo not shown) [Compound 49AA, 2-(3-(3-(3-methylpyridin-4-yl)phenyl)-4-(o-tolylsulfonyl)piperazin-1-yl)-2-oxoethanesulfonic acid]
EC50 (human TGR5 receptor): 100 to 999 nM
EC50 (mouse TGR5 receptor): < 100 nM

Cc1cnccc1-c1cccc([C@H](C)N(CCOCC(=O)NCCS(=O)(=O)O)S(=O)(=O)c2cccc(Cl)c2C)c1 [Compound 21AO, (S)-2-(2-(2-(3-Chloro-2-methyl-N-(1-(3-(3-methylpyridin-4-yl)phenyl)ethyl)phenylsulfonamido)ethoxy)acetamido)ethanesulfonic acid]
EC50 (human TGR5 receptor): 100 to 999 nM
EC50 (mouse TGR5 receptor): 100 to 999 nM

Cc1c(Cl)cccc1S(=O)(=O)N(CCCC(=O)NCCS(=O)(=O)NCC(=O)O)[C@@H](C)c1cccc(-c2ccncc2CO)c1 [Compound 20BS, (S)-2-(4-(3-chloro-N-(1-(3-(3-(hydroxymethyl)pyridin-4-yl)phenyl)ethyl)-2-methylphenylsulfonamido)butanamido)ethanesulfonamido acetic acid]
EC50 (human TGR5 receptor): 100 to 999 nM
EC50 (mouse TGR5 receptor): < 100 nM

Cc1cnccc1-c1cccc(C(CCCCN)NS(=O)(=O)c2ccccc2C(F)(F)F)c1 (stereo not shown) [Compound 24AA, N-(5-amino-1-(3-(3-methylpyridin-4-yl)phenyl)pentyl)-2-(trifluoromethyl)benzenesulfonamide]
EC50 (human TGR5 receptor): 1000 to 30000 nM
EC50 (mouse TGR5 receptor): 100 to 999 nM

Cc1cnccc1-c1cccc([C@H](CC(=O)N(C)C)NS(=O)(=O)c2ccccc2C(F)(F)F)c1 [Compound 5BB, (S)-N,N-dimethyl-3-(3-(3-methylpyridin-4-yl)phenyl)-3-(2-(trifluoromethyl)phenylsulfonamido)propanamide]
EC50 (human TGR5 receptor): 100 to 999 nM
EC50 (mouse TGR5 receptor): 100 to 999 nM

— US11236055B2 (Venenum Biodesign, LLC, priority 2016, dated 2022)
